Data on 34 compounds can be found in US20240360139A1, “BLOOD BRAIN BARRIER PENETRATING SELECTIVE INHIBITORS OF ROCK2 PROTEIN KINASES AND USES THEREOF” (GENOSCO Inc., priority 2023, published 2024).

The term IC50 denotes the concentration that gives 50% inhibition.

Experiment [1] concerns the target T1, Recombinant ROCK2 (amino acids 5-554) (Homo sapiens, UniProt O75116).
T1 construct: ROCK2 (amino acids 5-554)
Briefly: ROCK inhibition assay, LANCE Ultra TR-FRET (ROCK2). In kind it is biochemical. Conditions: 1 mM of ATP. How it is done: (§1) Kinase IC50 was determined through an in vitro assay based on LANCE Ultra TR-FRET (Time-Resolved Fluorescence Resonance Energy Transfer) homogeneous technologies method 5 (Perkin Elmer). Recombinant ROCK1 (amino acids 1-477) and ROCK2 (amino acids 5-554) proteins were purchased from Carna Biosciences and SignalChem. Compound activities were measured by Envision and IC50s were calculated. The assays were performed in white LUMITRAC™ 200 96 well half-area microplates from Greiner Bio-One. The kinase reaction buffer consisted of 50 mM HEPES pH 7.5, 1 mM EGTA, 10 mM MgCl2, 2 mM DTT and 0.01% 10 Tween-20. Kinases were incubated with 50 nM (ULight-CREBtide) substrate in the presence of 1 mM (ROCK1) or 1 mM (ROCK2) of ATP. The kinase reaction was carried out for 1 hour before addition of a stopping buffer to a final of 10 mM EDTA and 0.6 nM of LANCE Ultra Europium anti-phospho-CREB (Ser133) antibody (PerkinElmer TRF0200) in LANCE detection buffer. All assay incubations were performed at room temperature, and the microplates were sealed with polyester film during that time. The reaction was incubated for 1 hour, and the signal was read in Envision in TR-FRET mode (excitation at 320 nm and emission at 615/665 nm).
(§2) As used herein, a way to describe potency of inhibitory activity (nM) is a value of inhibitory activity at 50% (IC50).
For orientation: Time-resolved FRET reads energy transfer from a long-lived donor to a nearby acceptor.

The target of experiment [2] is T2, Recombinant ROCK1 (amino acids 1-477) (Homo sapiens, UniProt Q13464).
T2 construct: Recombinant ROCK1 (amino acids 1-477)
T2 sequence (Q13464 1-477): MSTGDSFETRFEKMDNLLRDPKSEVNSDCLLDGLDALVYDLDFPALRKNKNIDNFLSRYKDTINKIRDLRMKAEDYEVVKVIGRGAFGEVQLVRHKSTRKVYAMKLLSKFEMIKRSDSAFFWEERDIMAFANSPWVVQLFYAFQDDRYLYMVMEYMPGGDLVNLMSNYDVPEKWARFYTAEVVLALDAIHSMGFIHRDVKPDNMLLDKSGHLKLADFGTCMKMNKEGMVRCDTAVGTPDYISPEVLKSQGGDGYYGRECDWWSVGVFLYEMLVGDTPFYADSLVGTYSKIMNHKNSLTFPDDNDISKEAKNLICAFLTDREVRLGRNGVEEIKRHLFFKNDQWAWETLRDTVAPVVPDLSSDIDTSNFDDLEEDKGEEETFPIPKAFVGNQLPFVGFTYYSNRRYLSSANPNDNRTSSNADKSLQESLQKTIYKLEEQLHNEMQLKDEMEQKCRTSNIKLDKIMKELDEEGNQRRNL
Briefly: ROCK inhibition assay, LANCE Ultra TR-FRET (ROCK1). The format is biochemical. Conditions: 1 mM of ATP. How it is done: as §1, §2

Structures are written as SMILES.

T1 sequence (O75116 5-554): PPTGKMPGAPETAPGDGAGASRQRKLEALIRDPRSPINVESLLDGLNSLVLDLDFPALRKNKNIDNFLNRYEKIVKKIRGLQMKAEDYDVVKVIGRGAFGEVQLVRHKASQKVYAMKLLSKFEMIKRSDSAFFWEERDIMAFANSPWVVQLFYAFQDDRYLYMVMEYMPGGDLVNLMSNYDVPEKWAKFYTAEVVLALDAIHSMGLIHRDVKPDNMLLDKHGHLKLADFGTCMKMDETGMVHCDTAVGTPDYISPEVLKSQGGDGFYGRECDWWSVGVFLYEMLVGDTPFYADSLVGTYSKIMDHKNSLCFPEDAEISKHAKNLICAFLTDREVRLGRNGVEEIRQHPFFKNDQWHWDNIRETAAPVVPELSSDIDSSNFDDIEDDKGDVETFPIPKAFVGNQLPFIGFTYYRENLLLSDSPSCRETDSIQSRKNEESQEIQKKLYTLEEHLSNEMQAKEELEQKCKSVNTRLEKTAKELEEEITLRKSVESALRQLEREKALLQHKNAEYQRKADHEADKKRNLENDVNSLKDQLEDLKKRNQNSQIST

As for `NCCn1cc(C(=O)C2COc3ccc(Cl)cc3C2)c2cnc(-c3c[nH]nc3Cl)cc21` (stereo not shown) [Compound 2-1, [1-(2-aminoethyl)-6-(3-chloro-1H-pyrazol-4-yl)pyrrolo[3,2-c]pyridin-3-yl]-(6-chlorochroman-3-yl) methanone], the values for the IC50 in experiment [1] and in experiment [2] were less than 20 nM and 21 to 200 nM, respectively.

`CN(C)CCn1cc(C(=O)[C@@H]2COc3ccc(Cl)cc3C2)c2ccc(-c3cn[nH]c3F)cc21` [Compound 1-25]: the IC50 in experiment [1] lay in the range of 21 to 200 nM; in experiment [2], 201 to 500 nM.

Regarding `COc1ccc2c(c1)CC(C(=O)c1cn(C[C@@H]3CCN3)c3cc(-c4cn[nH]c4F)ccc13)CO2` (stereo partly shown) [Compound 1-37], the values for the IC50 in experiment [1] and in experiment [2] were less than 20 nM and greater than 501 nM, respectively. For `COc1ccc2c(c1)CC(C(=O)c1nn(CCN(C)C)c3cc(-c4c[nH]nc4OC)ccc13)CCO2` (stereo not shown) [Compound 5-64] the same measures were greater than 501 nM and greater than 501 nM. In the same order, the values of `COc1ccc2c(c1)C[C@H](C(=O)c1cn(C[C@H]3CCN3CCF)c3cc(-c4c[nH]nc4Cl)ccc13)CO2` [Compound 5-9] are less than 20 nM and 201 to 500 nM.

`COc1[nH]ncc1-c1ccc2c(C(=O)[C@@H]3COc4ccc(Cl)cc4C3)cn(CCN(C)C)c2c1` [Compound 5-30]: the IC50 was less than 20 nM in experiment [1] and 201 to 500 nM in experiment [2]. For `COc1n[nH]cc1-c1ccc2c(C(=O)C3COc4ccc(Cl)cc4C3)cn(C[C@H](C)N)c2c1` (stereo partly shown) [Compound 2-9] the same measures were less than 20 nM and 201 to 500 nM. With `Cc1n[nH]cc1-c1ccc2c(C(=O)C3COc4ccc(Cl)cc4C3)cn(CCN(C)C)c2c1` (stereo not shown) [Compound 5-1, (6-chlorochroman-3-yl)-[1-[2-(dimethylamino)ethyl]-6-(3-methyl-1H-pyrazol-4-yl)indol-3-yl]methanone], the half-inhibitory concentration (IC50) in experiment [1] was 201 to 500 nM; in experiment [2] it was greater than 501 nM.

Consider `COc1ccc2c(c1)CC(C(=O)c1cn(C[C@@H]3CCN3C)c3cc(-c4cn[nH]c4Cl)ccc13)CO2` (stereo partly shown) [Compound 1-46], for which the figures for the half-inhibitory concentration (IC50) in experiment [1] and in experiment [2] were 21 to 200 nM and greater than 501 nM, respectively. Consider `Cc1nocc1-c1ccc2c(C(=O)C3COc4ccc(F)cc4C3)cn(CCN(C)C)c2c1` (stereo not shown) [Compound 5-26], for which the IC50 in experiment [1] and in experiment [2] was greater than 501 nM in each case. For `CCN(C)CCn1cc(C(=O)C2COc3ccc(OC)cc3C2)c2ccc(-c3cn[nH]c3Cl)cc21` (stereo not shown) [Compound 3-25], the results for the IC50 in experiment [1] and in experiment [2] were less than 20 nM and 201 to 500 nM, respectively.

Turning to `CN(C)C1(Cn2cc(C(=O)C3COc4ccc(Cl)cc4C3)c3ccc(-c4cn[nH]c4Cl)cc32)CC1` (stereo not shown) [Compound 2-13], the half-inhibitory concentration (IC50) in experiment [1] and in experiment [2] was 21 to 200 nM each time. With `COc1n[nH]cc1-c1ccc2c(C(=O)C3COc4ccc(F)cc4C3)nn(CCN(C)C)c2c1` (stereo not shown) [Compound 5-51], the IC50 in experiment [1] was 21 to 200 nM; in experiment [2], greater than 501 nM.

With `CN(C)CCn1cc(C(=O)C2COc3ccc(F)cc3O2)c2ccc(-c3c[nH]nc3Cl)cc21` (stereo not shown) [Compound 5-16], the IC50 in experiment [1] was 201 to 500 nM; in experiment [2] it was greater than 501 nM. For `CN1CCCC1Cn1cc(C(=O)C2COc3ccc(Cl)cc3C2)c2ccc(-c3cn[nH]c3Cl)cc21` (stereo not shown) [Compound 1-20], the IC50 in experiment [1] and in experiment [2] was greater than 501 nM throughout. In the case of `CN(C)CCn1cc(C(=O)C2COc3ccccc3O2)c2ccc(-c3c[nH]nc3Cl)cc21` (stereo not shown) [Compound 5-18], the 50% inhibitory concentration (IC50) in experiment [1] and in experiment [2] was 201 to 500 nM in each case.

With `COc1n[nH]cc1-c1ccc2c(C(=O)[C@@H]3COc4ccc(Cl)cc4C3)nn(CCN(C)C)c2c1` [Compound 5-46], the IC50 in experiment [1] was less than 20 nM; in experiment [2], 201 to 500 nM. With `CN(C)CCn1cc(C(=O)C2COc3ccc(Cl)cc3C2)c2cnc(-c3c[nH]nc3Cl)cc21` (stereo not shown) [Compound 1-11], the IC50 in experiment [1] and in experiment [2] was greater than 501 nM in each case.

As to `COc1ccc2c(c1)C[C@H](C(=O)c1cn(C[C@H]3CCN3CC(F)(F)F)c3cc(-c4c[nH]nc4Cl)ccc13)CO2` [Compound 5-11], the concentration for half-maximal inhibition (IC50) in experiment [1] and in experiment [2] was 21 to 200 nM in each case. As to `CCN(CCn1cc(C(=O)[C@@H]2COc3ccc(OC)cc3C2)c2ccc(-c3c[nH]nc3Cl)cc21)CC(F)F` [Compound 5-13], the half-inhibitory concentration (IC50) in experiment [1] is less than 20 nM; in experiment [2] it was 201 to 500 nM.

For the compound `CN(C)CCn1cc(C(=O)[C@@H]2COc3ccc(Cl)cc3C2)c2ccc(-c3cn[nH]c3Cl)cc21` [Compound 5-36], the 50% inhibitory concentration (IC50) in experiment [1] is less than 20 nM; in experiment [2], 201 to 500 nM. In the same order, the values of `COc1ccc2c(c1)CC(C(=O)c1nn(CCN(C)C)c3cc(-c4c[nH]nc4Cl)ccc13)CO2` (stereo not shown) [Compound 5-50] are less than 20 nM and 21 to 200 nM. In the same order, the values of `COc1ccc2c(c1)CC(C(=O)c1cn(C[C@@H]3CCN3C)c3cc(-c4cn[nH]c4OC)ccc13)CO2` (stereo partly shown) [Compound 1-47] are less than 20 nM and greater than 501 nM. In the same order, the values of `C[C@H](Cn1cc(C(=O)[C@@H]2COc3ccc(Cl)cc3C2)c2ccc(-c3cn[nH]c3F)cc21)N(C)C` [Compound 2-17] are less than 20 nM and 201 to 500 nM. For `O=C(c1cn(CCN2CCC2)c2nc(-c3c[nH]nc3Cl)ccc12)C1COc2ccc(F)cc2C1` (stereo not shown) [Compound 3-1, [1-[2-(azetidin-1-yl)ethyl]-6-(3-chloro-1H-pyrazol-4-yl)pyrrolo[2,3-b]pyridin-3-yl]-(6-fluorochroman-3-yl)methanone], the half-inhibitory concentration (IC50) in experiment [1] was less than 20 nM; in experiment [2] it was greater than 501 nM. In the same order, the values of `CN(C)CCn1nc(C(=O)C2CCOc3ccc(F)cc3C2)c2ccc(-c3c[nH]nc3Cl)cc21` (stereo not shown) [Compound 5-63] are greater than 501 nM and greater than 501 nM.

As for `NCCn1cc(C(=O)C2COc3ccc(F)cc3C2)c2ccc(-c3c[nH]nc3Cl)cc21` (stereo not shown) [Compound 2-4], the IC50 in experiment [1] and in experiment [2] was less than 20 nM each time.

As for `COc1[nH]ncc1-c1cc2c(cn1)c(C(=O)C1COc3ccc(Cl)cc3C1)cn2CCN(C)C` (stereo not shown) [Compound 1-3, (6-chlorochroman-3-yl)(1-(2-(dimethylamino)ethyl)-6-(5-methoxy-1H-pyrazol-4-yl)-1H-pyrrolo[3,2-c]pyridin-3-yl)methanone dimethanesulfonic acid], the IC50 in experiment [1] is 21 to 200 nM; in experiment [2], greater than 501 nM.

On to `COc1[nH]ncc1-c1ccc2c(C(=O)C3COc4ccc(Cl)cc4C3)cn(CC3CCN3)c2c1` (stereo not shown) [Compound 1-32], for which the IC50 is less than 20 nM in experiment [1] and greater than 501 nM in experiment [2]. For `COc1[nH]ncc1-c1ccc2c(C(=O)C3COc4ccc(Cl)cc4C3)cn(C[C@H]3CCCN3C)c2c1` (stereo partly shown) [Compound 1-28] the same measures were greater than 501 nM and greater than 501 nM. For `CN(C)CCn1cc(C(=O)C2COc3ccc(Cl)cc3C2)c2ccc(-c3cn[nH]c3F)nc21` (stereo not shown) [Compound 1-16] the same measures were greater than 501 nM and greater than 501 nM. In the same order, the values of `CCN(CC)CCn1cc(C(=O)C2COc3ccc(OC)cc3C2)c2ccc(-c3cn[nH]c3F)cc21` (stereo not shown) [Compound 3-22] are less than 20 nM and 201 to 500 nM. For `COc1[nH]ncc1-c1ccc2c(C(=O)C3COc4ccc(Cl)cc4C3)cn(C[C@@H]3CCCN3C)c2c1` (stereo partly shown) [Compound 1-29], the figures for the IC50 in experiment [1] and in experiment [2] were 21 to 200 nM and 201 to 500 nM, respectively. `COc1[nH]ncc1-c1ccc2c(C(=O)[C@@H]3COc4ccc(F)cc4C3)cn(CCN(C)C)c2c1` [Compound 5-39]: in experiment [2], the IC50 was greater than 501 nM.
